Numbers after ± are expanded uncertainties.
Experiments:
[1] = xn = mol fraction of the nth substance listed; details: 101 kPa, Liquid; for speed of sound: Linear variable-path acoustic interferometer
[2] = refractive index (Na D-line) (dimensionless); xn = mol fraction of the nth substance listed; details: 101 kPa, Liquid

CC(C)CO [2-methyl-1-propanol] + CC1CCCCC1
x2 = 0
Details	mass density, 298.15 K [kg/m3]	mass density, 303.15 K [kg/m3]	mass density, 308.15 K [kg/m3]	refractive index, 298.15 K	refractive index, 303.15 K	refractive index, 308.15 K	speed of sound, 298.15 K [m/s]	viscosity, 298.15 K [mPa·s]	viscosity, 303.15 K [mPa·s]	viscosity, 308.15 K [mPa·s]
[1]	809.31 ± 8.1	805.23 ± 8.1	801.11 ± 8	–	–	–	1170 ± 4	3.097 ± 0.038	2.635 ± 0.032	2.249 ± 0.028
[2]	–	–	–	1.3932 ± 0.0013	1.3917 ± 0.0013	1.3896 ± 0.0013	–	–	–	–

CC(C)CCO [3-methylbutan-1-ol] + CC1CCCCC1
Details	mass density, 298.15 K [kg/m3]	mass density, 303.15 K [kg/m3]	mass density, 308.15 K [kg/m3]	refractive index, 298.15 K	refractive index, 303.15 K	refractive index, 308.15 K	speed of sound, 298.15 K [m/s]	viscosity, 298.15 K [mPa·s]	viscosity, 303.15 K [mPa·s]	viscosity, 308.15 K [mPa·s]
[1], x2 = 0	820.17 ± 8.2	816.28 ± 8.2	812.34 ± 8.1	–	–	–	1259 ± 4	2.779 ± 0.034	2.258 ± 0.028	1.844 ± 0.023
[1], x2 = 0.1002	814.65 ± 8.2	810.69 ± 8.1	806.74 ± 8.1	–	–	–	1255 ± 4	2.569 ± 0.032	2.144 ± 0.027	1.719 ± 0.022
[1], x2 = 0.2011	809.13 ± 8.1	805.14 ± 8.1	801.13 ± 8	–	–	–	1250 ± 4	2.359 ± 0.029	1.976 ± 0.025	1.593 ± 0.02
[1], x2 = 0.3001	803.62 ± 8.1	799.57 ± 8	795.53 ± 8	–	–	–	1246 ± 4	2.151 ± 0.027	1.81 ± 0.023	1.47 ± 0.019
[1], x2 = 0.4016	798.1 ± 8	794.02 ± 8	789.92 ± 7.9	–	–	–	1242 ± 4	1.938 ± 0.024	1.641 ± 0.021	1.343 ± 0.017
[1], x2 = 0.5019	792.58 ± 8	788.45 ± 7.9	784.32 ± 7.9	–	–	–	1238 ± 4	1.728 ± 0.022	1.472 ± 0.019	1.217 ± 0.016
[1], x2 = 0.6012	787.06 ± 7.9	782.89 ± 7.8	778.72 ± 7.8	–	–	–	1234 ± 4	1.519 ± 0.019	1.306 ± 0.017	1.093 ± 0.014
[1], x2 = 0.702	781.54 ± 7.8	777.33 ± 7.8	773.11 ± 7.8	–	–	–	1230 ± 4	1.307 ± 0.017	1.136 ± 0.015	0.9662 ± 0.013
[1], x2 = 0.8011	776.03 ± 7.8	771.78 ± 7.7	767.51 ± 7.7	–	–	–	1226 ± 4	1.097 ± 0.015	0.9594 ± 0.013	0.8412 ± 0.011
[1], x2 = 0.9009	770.51 ± 7.7	766.22 ± 7.7	761.9 ± 7.6	–	–	–	1221 ± 4	0.8861 ± 0.012	0.8008 ± 0.011	0.7156 ± 0.01
[2], x2 = 0	–	–	–	1.4056 ± 0.0013	1.4034 ± 0.0013	1.4013 ± 0.0013	–	–	–	–
[2], x2 = 0.1002	–	–	–	1.4073 ± 0.0013	1.405 ± 0.0013	1.4028 ± 0.0013	–	–	–	–
[2], x2 = 0.2011	–	–	–	1.4089 ± 0.0013	1.4066 ± 0.0013	1.4043 ± 0.0013	–	–	–	–
[2], x2 = 0.3001	–	–	–	1.4105 ± 0.0013	1.4081 ± 0.0013	1.4058 ± 0.0013	–	–	–	–
[2], x2 = 0.4016	–	–	–	1.4121 ± 0.0013	1.4097 ± 0.0013	1.4073 ± 0.0013	–	–	–	–
[2], x2 = 0.5019	–	–	–	1.4137 ± 0.0013	1.4112 ± 0.0013	1.4088 ± 0.0013	–	–	–	–
[2], x2 = 0.6012	–	–	–	1.4153 ± 0.0013	1.4128 ± 0.0013	1.4103 ± 0.0013	–	–	–	–
[2], x2 = 0.702	–	–	–	1.4169 ± 0.0013	1.4144 ± 0.0013	1.4118 ± 0.0013	–	–	–	–
[2], x2 = 0.8011	–	–	–	1.4185 ± 0.0013	1.4159 ± 0.0013	1.4133 ± 0.0013	–	–	–	–
[2], x2 = 0.9009	–	–	–	1.4201 ± 0.0013	1.4174 ± 0.0013	1.4148 ± 0.0013	–	–	–	–

CCCCO [butan-1-ol] + CC1CCCCC1
x2 = 0
Details	mass density, 298.15 K [kg/m3]	mass density, 303.15 K [kg/m3]	mass density, 308.15 K [kg/m3]	refractive index, 298.15 K	refractive index, 303.15 K	refractive index, 308.15 K	speed of sound, 298.15 K [m/s]	viscosity, 298.15 K [mPa·s]	viscosity, 303.15 K [mPa·s]	viscosity, 308.15 K [mPa·s]
[1]	808.49 ± 8.1	804.6 ± 8.1	800.67 ± 8	–	–	–	1268 ± 4	2.587 ± 0.032	2.254 ± 0.028	1.988 ± 0.025
[2]	–	–	–	1.3983 ± 0.0025	1.3959 ± 0.0025	1.394 ± 0.0025	–	–	–	–

CCO [ethanol] + CC1CCCCC1
x2 = 0
Details	mass density, 298.15 K [kg/m3]	mass density, 303.15 K [kg/m3]	mass density, 308.15 K [kg/m3]	refractive index, 298.15 K	refractive index, 303.15 K	refractive index, 308.15 K	speed of sound, 298.15 K [m/s]	viscosity, 298.15 K [mPa·s]	viscosity, 303.15 K [mPa·s]	viscosity, 308.15 K [mPa·s]
[1]	785.66 ± 7.9	781.34 ± 7.8	776.99 ± 7.8	–	–	–	1161 ± 4	1.083 ± 0.013	0.985 ± 0.012	0.8954 ± 0.011
[2]	–	–	–	1.3608 ± 0.0012	1.3589 ± 0.0012	1.3563 ± 0.0012	–	–	–	–

CC1CCCCC1 [methylcyclohexane] + CC(C)CCO
x1 = 1
Details	mass density, 298.15 K [kg/m3]	mass density, 303.15 K [kg/m3]	mass density, 308.15 K [kg/m3]	refractive index, 298.15 K	refractive index, 303.15 K	refractive index, 308.15 K	speed of sound, 298.15 K [m/s]	viscosity, 298.15 K [mPa·s]	viscosity, 303.15 K [mPa·s]	viscosity, 308.15 K [mPa·s]
[1]	764.99 ± 7.7	760.66 ± 7.6	756.3 ± 7.6	–	–	–	1217 ± 4	0.6757 ± 0.0095	0.631 ± 0.0089	0.5902 ± 0.0085
[2]	–	–	–	1.4217 ± 0.0013	1.4192 ± 0.0013	1.4163 ± 0.0013	–	–	–	–

From the NIST ThermoML archive (doi:10.1016/j.jct.2005.06.011)
